Experimental data taken from patent US11174291B2, “Silstatin compounds” (Arizona Board of Regents on behalf of Arizona State …, priority 2015, dated 2021).

What was measured:
Format in all cases: cell-based, human
BXPC-3 = experiment: NCI sulforhodamine B growth inhibition, pancreas cancer cells; conditions: BXPC3 pancreas, 48 h
Experimental: (§1) Inhibition of human cancer cell growth was assessed using the National Cancer Institute's standard sulforhodamine B assay as previously described.^19In summary, cells in a 5% fetal bovine serum/RPMI1640 medium were inoculated in 96-well plates and incubated for 24 hrs. Next, serial dilutions of the compounds were added. After 48 h, the plates were fixed with trichloroacetic acid, stained with sulforhodamine B, and read with an automated microplate reader. A growth inhibition of 50% (GI50 or the drug concentration causing a 50% reduction in the net protein increase) was calcd from optical density data with Immunosoft software. Normal cells were treated in identical conditions. Normal human prostate CRL-2221 (PZ—HPV-7) was grown in MEM 10% FBS and normal human breast MCF-10A in MEGM kit.

MCF-7 = experiment: NCI sulforhodamine B growth inhibition, breast cancer cells; conditions: MCF-7 breast, 48 h
Experimental: as §1

SF268 = experiment: NCI sulforhodamine B growth inhibition, CNS cancer cells; conditions: 48 h
Experimental: as §1

NCI-H460 = experiment: NCI sulforhodamine B growth inhibition, lung cancer cells; conditions: 48 h
Experimental: as §1

KM20L2 = experiment: NCI sulforhodamine B growth inhibition, colon cancer cells; conditions: 48 h
Experimental: as §1

DU-145 = experiment: NCI sulforhodamine B growth inhibition, prostate cancer cells; conditions: DU145 prostate, 48 h
Experimental: as §1

[1] = tested on: mini panel of cancer cell lines; experiment: Growth inhibition across the mini panel of cancer cell lines; conditions: mini panel of cancer cell lines (Table 1)
Experimental: as §1
The growth inhibition property of the silstatins and some intermediates were evaluated against a mini panel of cancer cell lines (Table 1).

Structure (SMILES) | Growth inhibition of human cancer cell lines GI50 (BXPC-3) [µg/mL] | Growth inhibition of human cancer cell lines GI50 (MCF-7) [µg/mL] | Growth inhibition of human cancer cell lines GI50 (SF268) [µg/mL] | Growth inhibition of human cancer cell lines GI50 (NCI-H460) [µg/mL] | Growth inhibition of human cancer cell lines GI50 (KM20L2) [µg/mL] | Growth inhibition of human cancer cell lines GI50 (DU-145) [µg/mL] | Cancer cell growth inhibition, assessment in words [1]
CC(C)C[C@H]1OC(=O)[C@H](C(C)C)NC(=O)[C@H](C)OC(=O)[C@@H](C(C)C)NC(=O)[C@@H](CC2CCCCC2)OC(=O)[C@H]([C@@H](C)OC(C)(C)C)NC(=O)[C@H](C)OC(=O)[C@@H](C(C)C)NC(=O)[C@@H](CC(C)C)OC(=O)[C@H](C(C)C)NC(=O)[C@H](C)OC(=O)[C@@H](C(C)C)NC1=O [Silstatin 17a, Cyclo-{Thr(tBu)-D-Hcha-D-Val-Lac-[Val-D-Hica-D-Val-Lac]2}] | 0.023 | 0.001 | 0.004 | 0.009 | 0.0024 | 0.007 | 
CC(C)[C@@H]1NC(=O)[C@H](C)OC(=O)[C@@H](C(C)C)NC(=O)[C@@H](CC2CCCCC2)OC(=O)[C@H](C(C)C)NC(=O)[C@H](C)OC(=O)[C@@H](C(C)C)NC(=O)[C@@H](CC2CCCCC2)OC(=O)[C@H](Cc2ccc(OC(C)(C)C)cc2)NC(=O)[C@H](C)OC(=O)[C@@H](C(C)C)NC(=O)[C@@H](CC2CCCCC2)OC1=O [Silstatin 14c, Cyclo-{Tyr(tBu)-D-Hcha-D-Val-Lac-[Val-D-Hcha-D-Val-Lac]2}] | >1 | >1 | >1 | >1 | >1 | >1 | 
CC(C)C[C@H]1OC(=O)[C@H](C(C)C)NC(=O)[C@H](C)OC(=O)[C@@H](C(C)C)NC(=O)[C@@H](CC(C)C)OC(=O)[C@H](C(C)C)NC(=O)[C@H](C)OC(=O)[C@@H](C(C)C)NC(=O)[C@@H](CC2CCCCC2)OC(=O)[C@H](Cc2ccc(OC(C)(C)C)cc2)NC(=O)[C@H](C)OC(=O)[C@@H](C(C)C)NC1=O [Silstatin 17b, Cyclo-{Tyr(tBu)-D-Hcha-D-Val-Lac-[Val-D-Hica-D-Val-Lac]2}] | 0.09 | 0.032 | 0.06 | 0.12 | 0.052 | 0.04 | 
CC(C)[C@@H]1NC(=O)[C@H](C)OC(=O)[C@@H](C(C)C)NC(=O)[C@@H](CC2CCCCC2)OC(=O)[C@H]([C@@H](C)OC(C)(C)C)NC(=O)[C@H](C)OC(=O)[C@@H](C(C)C)NC(=O)[C@@H](CC2CCCCC2)OC(=O)[C@H](C(C)C)NC(=O)[C@H](C)OC(=O)[C@@H](C(C)C)NC(=O)[C@@H](CC2CCCCC2)OC1=O [Silstatin 14b, Cyclo-{Thr(tBu)-D-Hcha-D-Val-Lac-[Val-D-Hcha-D-Val-Lac]2}] | 0.18 | 0.075 | 0.075 | 0.32 | 0.08 | 0.12 | 
CC(C)[C@@H]1NC(=O)[C@H](C)OC(=O)[C@@H](C(C)C)NC(=O)[C@@H](CC2CCCCC2)OC(=O)[C@H](C(C)C)NC(=O)[C@H](C)OC(=O)[C@@H](C(C)C)NC(=O)[C@@H](CC2CCCCC2)OC(=O)[C@H](Cc2ccc(O)cc2)NC(=O)[C@H](C)OC(=O)[C@@H](C(C)C)NC(=O)[C@@H](CC2CCCCC2)OC1=O [Silstatin 6 (15b), Cyclo-{Tyr-D-Hcha-D-Val-Lac-[Val-D-Hcha-D-Val-Lac]2}] | 0.53 | 0.12 | 0.05 | 0.32 | 0.09 | 0.22 | marked reduction of cancer cell growth inhibition capability
CC(C)C[C@H]1OC(=O)[C@H](C(C)C)NC(=O)[C@H](C)OC(=O)[C@@H](C(C)C)NC(=O)[C@@H](CC(C)C)OC(=O)[C@H](C(C)C)NC(=O)[C@H](C)OC(=O)[C@@H](C(C)C)NC(=O)[C@@H](CC(C)C)OC(=O)[C@H](C(C)C)NC(=O)[C@H](C)OC(=O)[C@@H](C(C)C)NC1=O [Silstatin 1 (7a), Cyclo-[Val-D-Hica-D-Val-Lac]3] | 0.0008 | 0.00011 | 0.00021 | 0.0007 | 0.00016 | 0.00042 | did not affect its high potency
CC(C)C[C@H]1OC(=O)[C@H](Cc2ccc(O)cc2)NC(=O)[C@H](C)OC(=O)[C@@H](C(C)C)NC(=O)[C@@H](CC(C)C)OC(=O)[C@H](C(C)C)NC(=O)[C@H](C)OC(=O)[C@@H](C(C)C)NC(=O)[C@@H](CC(C)C)OC(=O)[C@H](C(C)C)NC(=O)[C@H](C)OC(=O)[C@@H](C(C)C)NC1=O [Silstatin 3 (8b), Cyclo-{Tyr-D-Hica-D-Val-Lac-[Val-D-Hica-D-Val-Lac]2}] | 0.005 | 0.0016 | 0.004 | 0.0037 | 0.0011 | 0.0051 | somewhat decreased activity
CC(C)[C@@H]1NC(=O)[C@H](C)OC(=O)[C@@H](C(C)C)NC(=O)[C@@H](CC2CCCCC2)OC(=O)[C@H](C(C)C)NC(=O)[C@H](C)OC(=O)[C@@H](C(C)C)NC(=O)[C@@H](CC2CCCCC2)OC(=O)[C@H](C(C)C)NC(=O)[C@H](C)OC(=O)[C@@H](C(C)C)NC(=O)[C@@H](CC2CCCCC2)OC1=O [Silstatin 4 (14a), Cyclo-[Val-D-Hcha-D-Val-Lac]3] | 0.5 | 0.18 | 0.081 | 0.4 | 0.18 | 0.22 | marked reduction of cancer cell growth inhibition capability
CC(C)C[C@H]1OC(=O)[C@H](Cc2ccc(OC(C)(C)C)cc2)NC(=O)[C@H](C)OC(=O)[C@@H](C(C)C)NC(=O)[C@@H](CC(C)C)OC(=O)[C@H](C(C)C)NC(=O)[C@H](C)OC(=O)[C@@H](C(C)C)NC(=O)[C@@H](CC(C)C)OC(=O)[C@H](C(C)C)NC(=O)[C@H](C)OC(=O)[C@@H](C(C)C)NC1=O [Silstatin 7c, Cyclo-{Tyr(tBu)-D-Hica-D-Val-Lac-[Val-D-Hica-D-Val-Lac]2}] | 0.03 | 0.0042 | 0.0025 | 0.029 | 0.0048 | 0.011 | 
